According to PubChem BioAssay AID624369 (Broad Institute, 2012):
Results filed as inconclusive are left out. The source made the active and inactive calls.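 How the source made its calls: active means fitted curve crosses a set inhibition level at a dose up to twice the top tested dose; inconclusive means flat curve with moderate inhibition, or an unreliable curve fit; inactive means the rest, including signal rising instead of falling.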

Assay: inhibitors of TNFa-stimulated NF-kB luciferase reporter, dose response, selectivity assay for EBV LMP1 NF-kB inhibitor project, HEK293 LMP1 reporter cells, dry powder, set 2 (AID 624369)
Settings: HEK293 LMP1 TES2 NF-kB luciferase reporter, 16 h

SMILES	activity change, negative = inhibition (at 35 µM (top of the series))	also measured
C[C@H](NC(=O)C[C@@H]1C=C[C@@H](NC(=O)Cc2ccccn2)[C@H](CO)O1)c1ccccc1	-3.22% (inactive)	–
C[C@H](NC(=O)C[C@H]1C=C[C@H](NC(=O)Cc2ccccn2)[C@@H](CO)O1)c1ccccc1	-2.25% (inactive)	–
C[C@H](NC(=O)C[C@@H]1C=C[C@H](NC(=O)Cc2ccccn2)[C@@H](CO)O1)c1ccccc1	-2.15% (inactive)	–
C[C@@H]1CN([C@H](C)CO)C(=O)c2c(c3ccccc3n2C)-c2ccccc2CO[C@@H]1CN(C)C(=O)Nc1ccc(F)cc1	-1.47% (inactive)	–
COc1cccc(S(=O)(=O)N(C)C[C@H]2Oc3cc(C4=CCCCC4)ccc3S(=O)(=O)N([C@@H](C)CO)C[C@@H]2C)c1	12% (inactive)	–
Cc1noc(C)c1S(=O)(=O)Nc1ccc2c(c1)C(=O)N([C@@H](C)CO)C[C@@H](C)[C@@H](CN(C)Cc1ccc(C(F)(F)F)cc1)OCCCC[C@@H](C)O2	30.6% (inactive)	–
C[C@H](NC(=O)C[C@@H]1C=C[C@H](NC(=O)Cc2ccccn2)[C@H](CO)O1)c1ccccc1	–	activity change, negative = inhibition (at 30 µM (top of the series)): -0.606% (inactive)
O=C(C[C@@H]1C[C@H]2c3cc(NS(=O)(=O)c4ccc(F)cc4)ccc3O[C@H]2[C@@H](CO)O1)NC1CCCCC1	-3.73% (inactive)	–
O=C(C[C@@H]1C[C@@H]2c3cc(NC(=O)c4cccnc4)ccc3O[C@@H]2[C@H](CO)O1)NCC(F)(F)F	-2.45% (inactive)	–
C[C@H]1CN([C@@H](C)CO)C(=O)Cc2cc(NC(=O)Cc3ccccc3)ccc2O[C@H]1CN(C)Cc1ccc(C(F)(F)F)cc1	63.2% (inactive)	–
C[C@@H]1CN([C@H](C)CO)C(=O)Cc2cc(NC(=O)Cc3ccccc3)ccc2O[C@H]1CN(C)Cc1ccc(C(F)(F)F)cc1	2.66% (inactive)	–
COc1ccccc1CNC(=O)C[C@H]1C[C@@H]2c3cc(NC(=O)CN(C)C)ccc3O[C@@H]2[C@@H](CO)O1	-0.186% (inactive)	–
COc1cccc(S(=O)(=O)N(C)C[C@@H]2Oc3cc(C4=CCCCC4)ccc3S(=O)(=O)N([C@H](C)CO)C[C@H]2C)c1	-5.06% (inactive)	–
C[C@@H](NC(=O)C[C@H]1C=C[C@H](NC(=O)Cc2ccccn2)[C@@H](CO)O1)c1ccccc1	0.235% (inactive)	–
C[C@@H]1CN([C@H](C)CO)C(=O)Cc2cc(NC(=O)Cc3ccccc3)ccc2O[C@@H]1CN(C)Cc1ccc(C(F)(F)F)cc1	–	activity change, negative = inhibition (at 16 µM (top of the series)): 23.7% (inactive)
O=C(Cc1ccccn1)NCC[C@@H]1CC[C@@H](NC(=O)Nc2ccc(Cl)cc2)[C@H](CO)O1	1.95% (inactive)	–
CO[C@@H]1CN(C)C(=O)c2ccc(NC(C)=O)cc2OC[C@@H](C)N(Cc2ccccc2F)C[C@H]1C	3.06% (inactive)	–
Cc1noc(C)c1S(=O)(=O)Nc1ccc2c(c1)C(=O)N([C@@H](C)CO)C[C@H](C)[C@@H](CN(C)Cc1ccc(C(F)(F)F)cc1)OCCCC[C@@H](C)O2	-1.88% (inactive)	–
O=C(Nc1ccc(C(F)(F)F)cc1)Nc1ccc2c(c1)[C@H]1C[C@@H](CC(=O)N3CCc4ccccc4C3)O[C@@H](CO)[C@H]1O2	0.365% (inactive)	–
O=C(Cc1ccccn1)NCC[C@H]1CC[C@@H](NC(=O)Nc2ccc(Cl)cc2)[C@H](CO)O1	-8.81% (inactive)	–
O=C(Cc1ccccn1)NCC[C@H]1CC[C@@H](NC(=O)Nc2ccc(Cl)cc2)[C@@H](CO)O1	-6.43% (inactive)	–
C[C@H](NC(=O)C[C@H]1C=C[C@@H](NC(=O)Cc2ccccn2)[C@H](CO)O1)c1ccccc1	-0.458% (inactive)	–
C[C@@H]1CN([C@@H](C)CO)C(=O)Cc2cc(NC(=O)Cc3ccccc3)ccc2O[C@H]1CN(C)Cc1ccc(C(F)(F)F)cc1	29.3% (inactive)	–
C[C@@H](NC(=O)C[C@@H]1C=C[C@@H](NC(=O)Cc2ccccn2)[C@@H](CO)O1)c1ccccc1	-4.92% (inactive)	–
